In patent US20240384268A1, “Oligonucleotides” (Hudson Institute of Medical Research, priority 2021, published 2024):
In the oligonucleotide strings, read from the 5' end, every base follows the letter of its sugar. An asterisk marks phosphorothioate; unmarked linkages are phosphodiester. Other units and linkages are bracketed, terminal groups are in braces. A string of capitals states the bases alone. d = 2'-deoxy (DNA); m = 2'-O-methyl

Target: T1, human TLR7 (Homo sapiens, UniProt Q9NYK1)
T1 construct: HA; host or cells: 293XL-hTLR7-HA (HEK293)
T1 sequence (Q9NYK1 27-1049): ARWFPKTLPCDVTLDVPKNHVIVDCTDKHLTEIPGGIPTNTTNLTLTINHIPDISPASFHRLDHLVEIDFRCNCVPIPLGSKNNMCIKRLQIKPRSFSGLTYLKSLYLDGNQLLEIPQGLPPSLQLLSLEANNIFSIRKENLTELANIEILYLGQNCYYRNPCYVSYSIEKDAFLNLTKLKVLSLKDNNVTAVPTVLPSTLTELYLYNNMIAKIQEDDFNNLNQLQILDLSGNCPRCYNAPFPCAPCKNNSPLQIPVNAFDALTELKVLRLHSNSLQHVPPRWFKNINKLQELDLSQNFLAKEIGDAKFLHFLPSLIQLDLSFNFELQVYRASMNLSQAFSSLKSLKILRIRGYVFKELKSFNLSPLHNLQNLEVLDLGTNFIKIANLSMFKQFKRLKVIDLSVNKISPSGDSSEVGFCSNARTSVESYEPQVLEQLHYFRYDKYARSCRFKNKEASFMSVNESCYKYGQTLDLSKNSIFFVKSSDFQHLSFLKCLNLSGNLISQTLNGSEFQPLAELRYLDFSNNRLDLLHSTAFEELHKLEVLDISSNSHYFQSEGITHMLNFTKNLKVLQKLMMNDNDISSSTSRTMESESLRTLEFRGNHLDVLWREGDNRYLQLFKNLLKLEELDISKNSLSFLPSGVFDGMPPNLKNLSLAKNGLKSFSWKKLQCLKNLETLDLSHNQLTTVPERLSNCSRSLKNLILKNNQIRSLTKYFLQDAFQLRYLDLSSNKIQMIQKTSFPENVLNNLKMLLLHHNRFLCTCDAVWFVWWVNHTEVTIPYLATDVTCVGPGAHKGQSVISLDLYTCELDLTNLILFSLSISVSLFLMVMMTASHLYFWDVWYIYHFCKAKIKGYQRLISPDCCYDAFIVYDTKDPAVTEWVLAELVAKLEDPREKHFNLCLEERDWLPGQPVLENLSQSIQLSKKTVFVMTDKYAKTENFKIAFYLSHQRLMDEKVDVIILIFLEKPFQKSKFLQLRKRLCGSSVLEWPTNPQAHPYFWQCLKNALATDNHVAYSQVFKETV
Assay: HEK-TLR7 NF-κB-luciferase reporter, R848 stimulation
Format: cell-based
Settings: for TLR7 100 nM (averaged NF-κB-Luciferase level relative to R848 condition): ASO 100 nM; for TLR7 100 nM (averaged NF-κB-Luciferase level relative to R848 condition) / TLR7 500 nM (averaged NF-κB-Luciferase level relative to R848 condition): relative to R848 only, given as fraction; for TLR7 500 nM (averaged NF-κB-Luciferase level relative to R848 condition): ASO 500 nM; for TLR7 400 nM: 3mer 2'OMe ASO at 400 nM; for TLR7 400 nM / TLR7 2 uM / inhibition of TLR7 by 3-mer 2′OMe oligos (in words) / inhibition of R848 sensing by TLR7, short pre-treatment (in words) / IC50: HEK-TLR7; for TLR7 400 nM / TLR7 2 uM: value relative to Ligand only = 1.000, NT = 0.000; for TLR7 2 uM: 3mer 2'OMe ASO at 2 uM; for inhibition of TLR7 by 3-mer 2′OMe oligos (in words): 400 nM and 2 μM 3-mer, ~30 min, R848 1 μg/ml; for inhibition of R848 sensing by TLR7, short pre-treatment (in words): 100-500 nM oligo 20-50 min before R848 1 μg/ml; for IC50: oligo ~30-50 min before 1 μg/ml R848 overnight, read-out: IC50 (R848 sensing by TLR7)

Substance | TLR7 400 nM | TLR7 2 uM | further results
TGATGGCCTCCCATCT (antisense; LNA-modified, pattern not given here) [HPRT LNA-332 V1] |  |  | TLR7 100 nM (averaged NF-κB-Luciferase level relative to R848 condition): 0.657; TLR7 500 nM (averaged NF-κB-Luciferase level relative to R848 condition): 0.153
TGCACACTTCGTACCC (antisense; LNA-modified, pattern not given here) [CAMSAP1-4916 LNA V1] |  |  | TLR7 100 nM (averaged NF-κB-Luciferase level relative to R848 condition): 0.806; TLR7 500 nM (averaged NF-κB-Luciferase level relative to R848 condition): 0.299
TGGCCTCCCATCTCCT (antisense; LNA-modified, pattern not given here) [HPRT LNA-329 V1] |  |  | TLR7 100 nM (averaged NF-κB-Luciferase level relative to R848 condition): 0.877; TLR7 500 nM (averaged NF-κB-Luciferase level relative to R848 condition): 0.217
TGTGATGGCCTCCCAT (antisense; LNA-modified, pattern not given here) [HPRT LNA-334 V1] |  |  | TLR7 100 nM (averaged NF-κB-Luciferase level relative to R848 condition): 0.315; TLR7 500 nM (averaged NF-κB-Luciferase level relative to R848 condition): 0.090
TTCGTGGGGTCCTTTT (antisense; LNA-modified, pattern not given here) [HPRT LNA-661 V1] |  |  | TLR7 100 nM (averaged NF-κB-Luciferase level relative to R848 condition): 0.487; TLR7 500 nM (averaged NF-κB-Luciferase level relative to R848 condition): 0.178
TTTTGGCTGGGATCAA (antisense; LNA-modified, pattern not given here) [CAMSAP1-4697 LNA KL] |  |  | TLR7 100 nM (averaged NF-κB-Luciferase level relative to R848 condition): 0.564; TLR7 500 nM (averaged NF-κB-Luciferase level relative to R848 condition): 0.305
UAA (mU*mA*mA) | 1.126 | 1.029 | 
UAC (mU*mA*mC) | 1.161 | 1.003 | 
UAG (mU*mA*mG) | 1.158 | 0.918 | 
UAU (mU*mA*mU) | 1.086 | 0.935 | 
UCC (mU*mC*mC) | 1.166 | 0.958 | 
UCU (mU*mC*mU) | 1.196 | 0.956 | 
UGC (mU*mG*mC) | 1.057 | 0.782 | 
UGU (mU*mG*mU) | 1.108 | 0.984 | 
UUA (mU*mU*mA) | 0.997 | 1.042 | 
UUC (mU*mU*mC) | 0.536 | 0.642 | 
UUG (listed as RNA, chemistry not fully specified) | 0.945 | 1.074 | 
UUU (mU*mU*mU) | 0.861 | 1.084 | 
dA*dA*dA (DNA AAA; listed as DNA, chemistry not fully specified) | 1.352 | 0.867 | 
dA*dA*dC (DNA AAC; listed as DNA, chemistry not fully specified) | 1.019 | 0.770 | 
dA*dA*dG (DNA AAG; listed as DNA, chemistry not fully specified) | 1.247 | 0.876 | 
dA*dC*dA (DNA ACA; listed as RNA, chemistry not fully specified) | 1.234 | 0.831 | 
dA*dG*dA (DNA AGA; listed as DNA, chemistry not fully specified) | 1.219 | 0.795 | 

Substance | TLR7 400 nM | TLR7 2 uM | further results
dA*dG*dC (DNA AGC; listed as DNA, chemistry not fully specified) | 1.401 | 0.726 | 
dC*dA*dA (CAA; listed as DNA, chemistry not fully specified) | 1.175 | 0.787 | 
dC*dA*dC (CAC; listed as RNA, chemistry not fully specified) | 1.330 | 0.932 | 
dC*dC*dA (CCA; listed as DNA, chemistry not fully specified) | 1.270 | 0.780 | 
dC*dC*dC (CCC; listed as DNA, chemistry not fully specified) | 1.196 | 0.993 | 
dC*dC*dG (CCG; listed as DNA, chemistry not fully specified) | 1.227 | 1.006 | 
dC*dG*dA (CGA; listed as DNA, chemistry not fully specified) | 1.112 | 0.907 | 
dG*dC*dC [GCC] | 1.360 | 0.645 | 
dG*dC*dG [GCG] | 1.185 | 0.627 | 
mAmUmC (mA*mU*mC) [AUC, 3-mer 2′OMe PS oligo] | 0.950 | 0.430 | inhibition of TLR7 by 3-mer 2′OMe oligos (in words): inhibiting TLR7
mC*mG*mU*T*T*C*C*C*C*C*C*C*C*C*C*C*C*C*C*C (CGUTTCCCCCCCCCCCCCCC; antisense; sugars from the 5' end m3 d17, all phosphorothioate, methylation of C not given here) [[C2]Mut1-v3-dC] |  |  | inhibition of R848 sensing by TLR7, short pre-treatment (in words): significantly altered TLR7 inhibition
mCmUmU (antisense mC*mU*mU) [660-3] | 1.277 | 0.913 | 
mG*mC*mG*mG*mU*A*T*C*C*A*T*G*T*C*C*mC*mA*mG*mG*mC (mG*mC*mG*mG*mU*dA*dT*dC*dC*dA*dT*dG*dT*dC*dC*mC*mA*mG*mG*mC; antisense) [C2-Mut1] |  |  | IC50: 44 nM
mG*mG*mU*A*T*C*C*C*C*C*C*C*C*C*C*C*C*C*C*C (GGUATCCCCCCCCCCCCCCC; antisense; sugars from the 5' end m3 d17, all phosphorothioate, methylation of C not given here) [[C2]Mut1-dC] |  |  | inhibition of R848 sensing by TLR7, short pre-treatment (in words): significantly higher TLR7 inhibition than dC20
mGmAmU (mG*mA*mU) [GAU, 3-mer 2′OMe PS oligo] | 1.406 | 0.580 | inhibition of TLR7 by 3-mer 2′OMe oligos (in words): selectively inhibited TLR7 sensing; IC50: 300 nM
mGmUmA (GUA; all 2'-O-methyl, backbone not given here; further chemistry not fully specified) [shortMut1-3b] | 0.702 | 0.239 | inhibition of TLR7 by 3-mer 2′OMe oligos (in words): inhibiting TLR7
mGmUmC (mG*mU*mC) [GUC, 3-mer 2′OMe PS oligo] | 0.140 | 0.017 | inhibition of TLR7 by 3-mer 2′OMe oligos (in words): most potent 3-mer inhibiting TLR7
mGmUmG (mG*mU*mG) [GUG, 3-mer 2′OMe PS oligo] | 0.449 | 0.072 | inhibition of TLR7 by 3-mer 2′OMe oligos (in words): inhibiting TLR7
mGmUmU (mG*mU*mU) [GUU, 3-mer 2′OMe PS oligo] | 0.781 | 0.119 | inhibition of TLR7 by 3-mer 2′OMe oligos (in words): inhibiting TLR7
mUmCmA (mU*mC*mA) [UCA, 3-mer 2′OMe PS oligo] | 1.122 | 0.819 | 
mUmCmG (antisense mU*mC*mG) [660-3b] | 0.979 | 0.982 | 
mUmGmA (mU*mG*mA) [UGA, 3-mer 2′OMe PS oligo] | 1.126 | 0.831 | 
mUmGmG (mU*mG*mG) [UGG, 3-mer 2′OMe PS oligo] | 1.029 | 0.989 | 
